From US20080233242A1, “Antioxidant of Bamboo Leaves and Its Uses” (priority 2003, published 2008)

System: lipid oxidation in Jinhua ham
Assay: Antioxidation and sensory quality of Jinhua ham slices (AV, POV, chromatic aberration)
Settings: ham slice soaked 2 min in 0.03% solution, stored at 50±1° C. for 11 days, versus control group
Procedure: AOB was dissolved in water to produce a 0.03% solution, TBHQ (previously dissolved in ethanol) in the same concentration as control. A slice of Jinhua ham with a thickness of 1 cm was soaked for 2 min, and the effects of AOB on antioxidation and sensory quality of the slice of Jinhua ham were compared.

In the case of CC(C)(C)c1cc(O)ccc1O [TBHQ, tert-butyl hydroquinone], the “lipid oxidation (AV and POV)” value is reported as “significantly inhibited”.
